Where only a bound is given, the exact number is not on record here.

Data set [1] deals with T1, GSK3α (Homo sapiens, UniProt P49840). Briefly: GSK 3α enzyme inhibition (FRET), Method 1. The data set is classed as biochemical. Particulars: Table 4a1. The essentials: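 Inhibition is scored from phosphorylation of a dual-labelled synthetic peptide, measured by FRET after protease cleavage of unphosphorylated substrate. Incubations are 2 hr compound with enzyme, then 1 hr kinase reaction.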

Data set [2] deals with IL-8 release, d-U937 cells. The data set is described as follows: LPS-induced IL-8 release in d-U937 cells. As to conditions: Homo sapiens, dU937; Table 4c1; read-out: LPS Induced Release of Cytokine in d-U937 Cells, IL-8 IC50. The data set is classed as cell-based. The essentials:
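IL-8 release after a 4 hr challenge with LPS (0.1 μg/mL, E. coli 0111:B4) following a 2 hr compound pretreatment. Cells were human U937 monocytes differentiated to macrophage-type with PMA 100 ng/mL for 48–72 hr. Relative 50% effective concentration derived from concentration–response data.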

In data set [3] the test system is ICAM-1 expression, BEAS2B cells. Briefly: Poly I:C-induced ICAM-1 expression in BEAS2B cells. Particulars: Homo sapiens, BEAS-2B; read-out: Poly IC induced ICAM1 in BEAS2B, IC50. The data set is classed as cell-based. In outline:
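BEAS2B human bronchial epithelial cells pre-incubated 2 h with compound, then transfected with poly I:C (1 μg/mL) plus Oligofectamine. After 18 h, cell-surface ICAM-1 read by cell-based ELISA (A450–655), normalised to Crystal Violet cell number (A595); inhibition calculated against vehicle control at each concentration.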

For data set [4], the system named is d-U937 cells. The data set is described as follows: Cell viability: MTT assay. The data set is classed as cell-based, human. As to conditions: 1 μg/mL. The essentials: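 Differentiated U937 cells exposed to compound at 1 or 10 μg/mL, either 4 h in 5% FCS or 24 h in 10% FCS RPMI1640. MTT then added for 1 h, formazan dissolved in DMSO and read at 550 nm. Viability loss given as % versus 0.5% DMSO vehicle; apparent gains appear negative.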
For orientation: Tetrazolium assays rely on reduction of a dye to a coloured formazan, in cell work by metabolically active cells.

In data set [5] the test system is TNFα release, d-U937 cells. The data set is described as follows: LPS-induced TNFα release in d-U937 cells. The data set is classed as cell-based. Particulars: Homo sapiens, dU937; relative to 10 μg/mL BIRB796; Table 4c1; read-out: LPS Induced Release of Cytokine in d-U937 Cells, TNFα REC50. In outline:
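U937 cells differentiated with PMA (100 ng/mL, 48–72 hr), pre-treated with compound for 2 hr, then stimulated with E. coli LPS (0.1 μg/mL) for 4 hr. Supernatant cytokine measured by sandwich ELISA; inhibition versus vehicle control, REC50 from concentration-response curve.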

The target of data set [6] is Syk (Homo sapiens, UniProt P43405). Briefly: Syk enzyme inhibition (FRET). The data set is classed as biochemical. Particulars: Table 4a1. The essentials:
(§1)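 Enzyme was preincubated with test compound (added as 4, 0.4, 0.04 or 0.004 μg/mL solutions) for 2 hr at RT. FRET peptide (8 μM solution) and ATP solution (800 μM for c-Src, 60 μM for Syk) were then added for 1 hr, followed by 1 hr protease development.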

The target of data set [7] is cSrc (Homo sapiens, UniProt P12931). Briefly: c-Src enzyme inhibition (FRET). The data set is classed as biochemical. Particulars: Table 4a1. In outline: as §1
The test system of data set [8] is PBMC cells. Briefly: Cell mitosis assay. The data set is classed as cell-based. Particulars: Homo sapiens, read-out: % Inhibition of mitosis in PBMC cells at 5 μg/mL. How it is done:
PBMCs from healthy subjects are separated from whole blood (Quintiles, London, UK) using a density gradient (Histopaque®-1077, Sigma-Aldrich, Poole, UK). The PBMCs (3 million cells per sample) are subsequently treated with 2% PHA (Sigma-Aldrich, Poole, UK) for 48 hr, followed by a 20 hr exposure to varying concentrations of test compounds. At 2 hr before collection, PBMCs are treated with demecolcine (0.1 μg/mL; Invitrogen, Paisley, UK) to arrest cells in metaphase. […] Fluorescence is observed using an ATTUNE flow cytometer (Invitrogen, Paisley, UK), gating for lymphocytes.

Data set [9] deals with IL-8 release, PBMCs. The data set is described as follows: LPS-induced IL-8 release in PBMC cells. The data set is classed as cell-based. Particulars: Homo sapiens, LPS stimulated, read-out: IC50 Values for Inhibition of Cytokine Release, PBMCs, IL-8. As for the experimental part: (b) LPS-Induced TNFα/IL-8 Release in PBMC Cells
Peripheral blood mononuclear cells (PBMCs) from healthy subjects are separated from whole blood using a density gradient (Lymphoprep, Axis-Shield Healthcare). The PBMCs are seeded in 96 well plates and treated with compounds at the desired concentration for 2 hours before addition of 1 ng/ml LPS (Escherichia Coli 0111:B4 from Sigma Aldrich) for 24 hours under normal tissue culture conditions (37° C., 5% CO2). The supernatant is harvested for determination of […] concentrations by sandwich ELISA (Duo-set, R&D systems) and read on the fluorescence microplate reader (Varioskan® Flash, ThermoFisher Scientific).

Data set [10] addresses T1, GSK3α. Briefly: GSK 3α enzyme inhibition (FRET), Method 2. The data set is classed as biochemical. As to conditions: Table 4a2, different laboratory.

Chain of cSrc (P12931 whole entry): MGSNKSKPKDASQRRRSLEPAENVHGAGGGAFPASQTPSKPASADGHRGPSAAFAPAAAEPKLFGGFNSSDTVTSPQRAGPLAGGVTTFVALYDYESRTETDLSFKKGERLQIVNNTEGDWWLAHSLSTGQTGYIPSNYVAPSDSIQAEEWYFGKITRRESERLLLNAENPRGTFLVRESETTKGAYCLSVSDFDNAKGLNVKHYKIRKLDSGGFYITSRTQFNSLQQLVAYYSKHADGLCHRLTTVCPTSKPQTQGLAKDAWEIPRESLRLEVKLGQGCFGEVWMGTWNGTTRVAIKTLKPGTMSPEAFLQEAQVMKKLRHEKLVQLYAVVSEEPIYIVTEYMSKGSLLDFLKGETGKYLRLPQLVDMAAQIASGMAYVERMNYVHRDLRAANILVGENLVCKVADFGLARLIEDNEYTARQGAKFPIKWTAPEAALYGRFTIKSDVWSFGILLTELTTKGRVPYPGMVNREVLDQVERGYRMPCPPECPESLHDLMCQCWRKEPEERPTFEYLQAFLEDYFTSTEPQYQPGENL
T1 sequence (P49840 whole entry): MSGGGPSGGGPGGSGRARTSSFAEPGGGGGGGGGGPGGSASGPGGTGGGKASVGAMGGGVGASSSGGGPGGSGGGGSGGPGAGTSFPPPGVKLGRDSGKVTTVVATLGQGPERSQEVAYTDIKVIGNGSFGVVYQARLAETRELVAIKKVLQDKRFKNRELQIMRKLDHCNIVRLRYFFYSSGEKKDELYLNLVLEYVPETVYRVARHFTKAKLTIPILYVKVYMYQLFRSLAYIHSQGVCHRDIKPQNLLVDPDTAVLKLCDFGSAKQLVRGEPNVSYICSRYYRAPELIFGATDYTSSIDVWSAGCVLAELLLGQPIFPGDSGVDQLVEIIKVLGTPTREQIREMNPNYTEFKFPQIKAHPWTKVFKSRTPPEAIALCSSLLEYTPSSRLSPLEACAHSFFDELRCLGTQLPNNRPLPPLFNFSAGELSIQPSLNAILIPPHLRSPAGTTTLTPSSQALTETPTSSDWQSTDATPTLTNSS

For `COc1cc(Nc2nccc(Oc3ccc(NC(=O)Nc4cc(C(C)C)nn4-c4ccc(C)cc4)c4ccccc34)n2)cc(C(=O)N2CCOCC2)c1` [Example 12, 1-(3-Isopropyl-1-(p-tolyl)-1H-pyrazol-5-yl)-3-(4-((2-((3-methoxy-5-(morpholine-4-carbonyl)phenyl)amino)pyrimidin-4-yl)oxy)naphthalen-1-yl)urea], the IC50 – broadly, the point on the concentration scale where inhibition reaches its midpoint – in data set [1] is 509 nM; in [2] it was 1 nM; in [3] it was 2.5 nM; in [6], 16 nM; in data set [7] it was 5 nM. For the same compound, the “Cell viability at time point in d-U937 cells, 4 h” value in data set [4] was “−ve (−ve and +ve indicate that the value is below and above respectively, the no significant effect threshold, defined as 30% inhibition at 1 μg/mL at the time point indicated)”. Moreover, in [4], the “Cell viability at time point in d-U937 cells, 24 h” value (from here on “Cell viability at time point … 24 h”) is “−ve (−ve and +ve indicate that the value is below and above respectively, the no significant effect threshold, defined as 30% inhibition at 1 μg/mL at the time point indicated)”. The EC50 in data set [5] was 0.5 nM. For the same compound, the inhibition at 5 µg/mL in data set [8] came to 27.8%.
For `COc1ccc(-n2nc(C(C)C)cc2NC(=O)Nc2ccc(Oc3ccnc(Nc4cc(OC)cc(C(=O)NCCO)c4)n3)c3ccccc23)cc1` [Example 65, N-(2-hydroxyethyl)-3-((4-((4-(3-(3-isopropyl-1-(4-methoxyphenyl)-1H-pyrazol-5-yl)ureido)naphthalen-1-yl)oxy)pyrimidin-2-yl)amino)-5-methoxybenzamide], the IC50 was greater than 14200 nM in [1]; 0.6 nM in data set [2]; 8.3 nM in [3]; 61 nM in data set [6]; 8 nM in [7]. Besides, the “Cell viability at time point in d-U937 cells, 4 h” value in data set [4] was “−ve (−ve and +ve indicate that the value is below and above respectively, the no significant effect threshold, defined as 30% inhibition at 1 μg/mL at the time point indicated)”. In data set [4], the “Cell viability at time point … 24 h” value is “−ve (−ve and +ve indicate that the value is below and above respectively, the no significant effect threshold, defined as 30% inhibition at 1 μg/mL at the time point indicated)”. In addition, the EC50 in [5] came to 1.7 nM. For the same compound, in [8], the inhibition at 5 µg/mL amounted to 36.7%.
Regarding `Cc1ccc(-n2nc(C(C)(C)C)cc2NC(=O)Nc2ccc(Oc3ccnc(Nc4cccc(C(N)=O)c4)n3)c3ccccc23)cc1` [Example 2, 3-((4-((4-(3-(3-(tert-Butyl)-1-(p-tolyl)-1H-pyrazol-5-yl)ureido)naphthalen-1-yl)oxy)pyrimidin-2-yl)amino)benzamide], the IC50 in data set [1] is 1260 nM; in data set [2], 4.5 nM; in data set [3], 1 nM; in data set [6], 250 nM; in [7], 5 nM. The “Cell viability at time point in d-U937 cells, 4 h” value in [4] is “−ve (−ve and +ve indicate that the value is below and above respectively, the no significant effect threshold, defined as 30% inhibition at 1 μg/mL at the time point indicated)”. For the same compound, the “Cell viability at time point … 24 h” value in [4] is “−ve (−ve and +ve indicate that the value is below and above respectively, the no significant effect threshold, defined as 30% inhibition at 1 μg/mL at the time point indicated)”. Besides, the EC50 in [5] is 0.8 nM. Also, in data set [8], the inhibition at 5 µg/mL amounted to 46.5%.
For `COc1cc(C(=O)NCCN2CCOCC2)ccc1Nc1nccc(Oc2ccc(NC(=O)Nc3cc(C(C)C)nn3-c3ccc(C)cc3)c3ccccc23)n1` [Example 36, 4-((4-((4-(3-(3-isopropyl-1-(p-tolyl)-1H-pyrazol-5-yl)ureido)naphthalen-1-yl)oxy)pyrimidin-2-yl)amino)-3-methoxy-N-(2-morpholinoethyl)benzamide], the IC50 was greater than 13200 nM in data set [1]; 46 nM in data set [2]; 82.3 nM in [3]; 30.4 nM in [9]; 169 nM in [6]; 8 nM in [7]. The IC50 in [10] was no less than 13200 nM. Besides, the “Cell viability at time point in d-U937 cells, 4 h” value in data set [4] was “−ve (−ve and +ve indicate that the value is below and above respectively, the no significant effect threshold, defined as 30% inhibition at 1 μg/mL at the time point indicated)”. Besides, the “Cell viability at time point … 24 h” value in data set [4] was “−ve (−ve and +ve indicate that the value is below and above respectively, the no significant effect threshold, defined as 30% inhibition at 1 μg/mL at the time point indicated)”. The EC50 in [5] turned out to be 4.7 nM.
Turning to `CCc1cc(NC(=O)Nc2ccc(Oc3ccnc(Nc4cc(OC)cc(C(=O)NCCN5CCOCC5)c4)n3)c3ccccc23)n(-c2ccc(C)cc2)n1` [Example 49, 3-((4-((4-(3-(3-ethyl-1-(p-tolyl)-1H-pyrazol-5-yl)ureido)naphthalen-1-yl)oxy)pyrimidin-2-yl)amino)-5-methoxy-N-(2-morpholinoethyl)benzamide], the IC50 in data set [1] is greater than 13500 nM; in data set [2], 17.2 nM; in data set [3] it was 33 nM; in [9], 19 nM; in [6] it was 57 nM; in [7], 1 nM. Also, in [10], the IC50 was no less than 13500 nM. The “Cell viability at time point in d-U937 cells, 4 h” value in [4] is “−ve (−ve and +ve indicate that the value is below and above respectively, the no significant effect threshold, defined as 30% inhibition at 1 μg/mL at the time point indicated)”. In addition, in data set [4], the “Cell viability at time point … 24 h” value was “−ve (−ve and +ve indicate that the value is below and above respectively, the no significant effect threshold, defined as 30% inhibition at 1 μg/mL at the time point indicated)”. Moreover, the EC50 in [5] was 9.2 nM.
Regarding `Cc1ccc(-n2nc(C(C)C)cc2NC(=O)Nc2ccc(Oc3ccnc(Nc4cccc(C(=O)NCCN5CCOCC5)c4)n3)c3ccccc23)cc1` [Example 19, 3-((4-((4-(3-(3-isopropyl-1-(p-tolyl)-1H-pyrazol-5-yl)ureido)naphthalen-1-yl)oxy)pyrimidin-2-yl)amino)-N-(2-morpholinoethyl)benzamide], the IC50 turned out to be 1240 nM in [1], 0.2 nM in data set [2] and 4 nM in [6]. Moreover, the “Cell viability at time point in d-U937 cells, 4 h” value in [4] was “−ve (−ve and +ve indicate that the value is below and above respectively, the no significant effect threshold, defined as 30% inhibition at 1 μg/mL at the time point indicated)”. Besides, the “Cell viability at time point … 24 h” value in data set [4] is “−ve (−ve and +ve indicate that the value is below and above respectively, the no significant effect threshold, defined as 30% inhibition at 1 μg/mL at the time point indicated)”. In addition, in data set [5], the EC50 stood at 0.3 nM. Moreover, the inhibition at 5 µg/mL in data set [8] was determined as 25.3%.

Source of the values: patent US20140057915A1, “KINASE INHIBITORS” (TOPIVERT PHARMA LIMITED, priority 2012, published 2014).
